Experimental data published in publication PMC9762412 (SLAS discovery : advancing life sciences R & D, 2022).
“Also recorded” adds a separate entry of the source.

Legend:
[1] = test system: VTA dopamine neurons, NMDAR EPSCs; experiment: Electrophysiology, NMDAR EPSCs of VTA dopamine neurons in slices; parameters: species or system mouse; settings: CRF 1 μM, VTA-DA neurons, male and female mice
[2] = test system: CRF1+ neurons in the central nucleus of the amygdala (CeA); experiment: Electrophysiology, mIPSCs of CRF1+ neurons in CeA slices; parameters: species or system mouse

CC[C@H](C)[C@H](NC(=O)[C@@H](NC(=O)[C@H](CCC(=O)O)NC(=O)[C@H](CCSC)NC(=O)[C@H](CC(C)C)NC(=O)[C@H](CCCCN)NC(=O)[C@H](CCCNC(=N)N)NC(=O)[C@H](CC(N)=O)NC(=O)[C@H](CO)NC(=O)[C@H](Cc1c[nH]cn1)NC(=O)[C@H](C)NC(=O)[C@H](CCC(N)=O)NC(=O)[C@H](CCC(N)=O)NC(=O)[C@H](C)NC(=O)[C@H](CC(C)C)NC(=O)[C@H](CCC(N)=O)NC(=O)[C@H](CCC(=O)O)NC(=O)[C@H](C)NC(=O)[C@H](CCCNC(=N)N)NC(=O)[C@H](C)NC(=O)[C@H](CCSC)NC(=O)[C@H](CCC(=O)O)NC(=O)[C@H](CC(C)C)NC(=O)[C@@H](NC(=O)[C@H](CCC(=O)O)NC(=O)[C@H](CCCNC(=N)N)NC(=O)[C@H](CC(C)C)NC(=O)[C@H](CC(C)C)NC(=O)[C@H](Cc1c[nH]cn1)NC(=O)[C@H](Cc1ccccc1)NC(=O)[C@@H](NC(=O)[C@H](CC(C)C)NC(=O)[C@H](CC(=O)O)NC(=O)[C@H](CC(C)C)NC(=O)[C@H](CO)NC(=O)[C@@H](NC(=O)[C@@H]1CCCN1C(=O)[C@@H]1CCCN1C(=O)[C@H](CCC(=O)O)NC(=O)[C@H](CCC(=O)O)NC(=O)[C@@H](N)CO)[C@@H](C)CC)[C@@H](C)O)C(C)C)[C@@H](C)CC)C(N)=O [CRF, corticotropin releasing factor] was tested, and the “Effect of CRF on NMDA receptor EPSCs” value [1] was “potentiated” and the “Change in mIPSC properties by CRF after pre-treatment” value [2] was “did not induce changes; also recorded: do not produce significant changes”.
